PMC10447463, “Data-mining unveils structure–property–activity correlation of viral infectivity enhancing self-assembling peptides” (Nature Communications, 2023)
Several values for one entry are separate records, joined by “and”; a condition that tells them apart may be missing. Identical values can stand only once. Like-named read-outs stand apart in the source and are kept apart here.

How the values were obtained:
[1] = Turbidity, derived count rate of scattered light; assay type: physicochemical; conditions: for Count Rate / kcps: derived count rate of scattered light at 633 nm, 173°, from zeta-potential measurement, 0.1 mg/mL in 1 mM KCl after 1 d at 1 mg/mL in PBS, turbidity / microscopic aggregation, mean of triplicate; for Log Count Rate: log of derived count rate
Method in brief: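 One-day room-temperature aggregation at 1 mg/mL in PBS (pH 7.4) preceded measurement; samples then went into 1 mM KCl. Triplicates per sample, two independent experiments averaged.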

[2] = β-sheet content by ATR-FT-IR; assay type: physicochemical; conditions: for b -sheet / %: Fig. S7 panel A, β-sheet content by ATR-FT-IR
Method in brief: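 Lyophilized PNF (from 1 mg/mL) scanned 64× on diamond ATR, 2 cm^-1 resolution; β-sheet content per earlier report. CR: spin through 3 kDa MWCO, 16200 x g, 4 °C, 45 min; lyophilize filtrate + unfiltered; DMSO; fluorescamine 20 min RT; ex 365/em 470.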

[3] = Log10 of derived count rate of scattered light (turbidity)
[4] = turbidity, Log10 of derived count rate of scattered light, Figure 3A source data
[5] = turbidity, log10 of derived count rate of scattered light
[6] = log10 of derived count rate of scattered light (turbidity)
[7] = logarithm of count rate in kcps

## KIKIKIKIYYYY
[1]; [3]
  Log10 Count Rate: 3.996
[1]
  Count Rate / kcps: 9918 kcps
[1]; peptides with TEM 2cat 0
  Zeta Count Rate: 9918 kcp
[1]; [4]
  Log10 Count Rate: 3.996
[1]; [5]
  Log10 Count Rate: 3.996
[2]
  b -sheet / %: 56.7%
[2]; peptides with TEM 2cat 0
  beta sheet: 57

## QCKFKFQF
[1]; [3]
  Log10 Count Rate: 3.426
[1]
  Count Rate / kcps: 2669 kcps
[1]; [4]
  Log10 Count Rate: 3.426
[1]; [5]
  Log10 Count Rate: 3.426
[2]
  b -sheet / %: 40.03%

## CKFKFQFNMW
[1]; [3]
  Log10 Count Rate: 3.613
[1]
  Count Rate / kcps: 4107 kcps
[1]; [6]
  Log10 Count Rate: 3.613
[1]; [4]
  Log10 Count Rate: 3.613
[2]
  b -sheet / %: 47.7253%

## KFKFQFNMWQ
[1]; [3]
  Log10 Count Rate: 2.866
[1]
  Count Rate / kcps: 735 kcps
[1]; [7]
  Log10 Count Rate: 2.866
[1]; [4]
  Log10 Count Rate: 2.866
[1]; [5]
  Log10 Count Rate: 2.866
[2]
  b -sheet / %: 43.15%

## KYKGAIIGNIK
[1]; [3]
  Log10 Count Rate: 1.644
[1]
  Count Rate / kcps: 44 kcps
[1]; [4]
  Log10 Count Rate: 1.644
[1]; [5]
  Log10 Count Rate: 1.644
[2]
  b -sheet / %: 44.63%

## KYKYQY
[1]; [3]
  Log10 Count Rate: 1.499
[1]
  Count Rate / kcps: 32 kcps
[1]; [6]
  Log10 Count Rate: 1.499
[1]; [4]
  Log10 Count Rate: 1.499
[2]
  b -sheet / %: 0%

## KIRGKFEKED
[1]; [3]
  Log10 Count Rate: 2.331
[1]
  Count Rate / kcps: 214 kcps
[1]; [4]
  Log10 Count Rate: 2.331
[1]; [5]
  Log10 Count Rate: 2.331
[2]
  b -sheet / %: 28.67%

## KIKIQINMAQ
[1]; [3]
  Log10 Count Rate: 3.768
[1]
  Count Rate / kcps: 5859 kcps
[1]; [4]
  Log10 Count Rate: 3.768
[1]; [5]
  Log10 Count Rate: 3.768
[2]
  b -sheet / %: 45.78%

## KIKQIINM
[1]; [3]
  Log10 Count Rate: 3.395
[1]
  Count Rate / kcps: 2481 kcps
[1]; [4]
  Log10 Count Rate: 3.395
[1]; [5]
  Log10 Count Rate: 3.395
[2]
  b -sheet / %: 44%

## CETMYDKILKNLSRSR
[1]; [3]
  Log10 Count Rate: 3.041
[1]
  Count Rate / kcps: 1099 kcps
[1]; [4]
  Log10 Count Rate: 3.041
[1]; [5]
  Log10 Count Rate: 3.041
[2]
  b -sheet / %: 62.1014%

## CKFC
[1]; [3]
  Log10 Count Rate: 2.371
[1]
  Count Rate / kcps: 235 kcps
[1]; [4]
  Log10 Count Rate: 2.371
[1]; [5]
  Log10 Count Rate: 2.371
[2]
  b -sheet / %: 38.87%

## KWKWQW
[1]; [3]
  Log10 Count Rate: 3.189
[1]
  Count Rate / kcps: 1545 kcps
[1]; [6]
  Log10 Count Rate: 3.189
[1]; [7]
  Log10 Count Rate: 3.189
[1]; [4]
  Log10 Count Rate: 3.189
[2]
  b -sheet / %: 30.47%

## KIKIQINMWQ
[1]; [3]
  Log10 Count Rate: 3.342
[1]
  Count Rate / kcps: 2196 kcps
[1]; [4]
  Log10 Count Rate: 3.342
[1]; [5]
  Log10 Count Rate: 3.342
[2]
  b -sheet / %: 42.41%

## KIKIQI
[1]; [3]
  Log10 Count Rate: 2.035
[1]
  Count Rate / kcps: 108 kcps
[1]; [4]
  Log10 Count Rate: 2.035
[1]; [5]
  Log10 Count Rate: 2.035
[2]
  b -sheet / %: 38.6%

## KAKAQA
[1]; [3]
  Log10 Count Rate: 1.321
[1]
  Count Rate / kcps: 21 kcps
[1]; [4]
  Log10 Count Rate: 1.321
[1]; [5]
  Log10 Count Rate: 1.321
[2]
  b -sheet / %: 40.34%

## NMWQKAKAQA
[1]; [3]
  Log10 Count Rate: 2.384
[1]
  Count Rate / kcps: 242 kcps
[1]; [4]
  Log10 Count Rate: 2.384
[1]; [5]
  Log10 Count Rate: 2.384
[2]
  b -sheet / %: 37.34%

## KFKQFFNMWQ
[1]; [3]
  Log10 Count Rate: 2.375
[1]
  Count Rate / kcps: 237 kcps
[1]; [4]
  Log10 Count Rate: 2.375
[1]; [5]
  Log10 Count Rate: 2.375
[2]
  b -sheet / %: 32.75%

## CRFRVPF
[1]; [3]
  Log10 Count Rate: 1.869
[1]
  Count Rate / kcps: 74 kcps
[1]; [4]
  Log10 Count Rate: 1.869
[1]; [5]
  Log10 Count Rate: 1.869
[2]
  b -sheet / %: 11.43%

## RLRLTLC
[1]; [3]
  Log10 Count Rate: 2.0991
[1]
  Count Rate / kcps: 126 kcps
[1]; [4]
  Log10 Count Rate: 2.0991
[1]; [5]
  Log10 Count Rate: 2.0991
[2]
  b -sheet / %: 20.6858%

## FKFDKFKFDK
[1]; [3]
  Log10 Count Rate: 1.6545
[1]
  Count Rate / kcps: 45 kcps
[1]; [4]
  Log10 Count Rate: 1.6545
[1]; [5]
  Log10 Count Rate: 1.6545
[2]
  b -sheet / %: 46.64%

## CKFKFQFNM
[1]; [3]
  Log10 Count Rate: 3.347
[1]
  Count Rate / kcps: 2224 kcps
[1]; [7]
  Log10 Count Rate: 3.347
[1]; [4]
  Log10 Count Rate: 3.347
[1]; [5]
  Log10 Count Rate: 3.347
[2]
  b -sheet / %: 41%

## MKFKFQF
[1]; [3]
  Log10 Count Rate: 2.0933
[1]
  Count Rate / kcps: 124 kcps
[1]; [4]
  Log10 Count Rate: 2.0933
[1]; [5]
  Log10 Count Rate: 2.0933
[2]
  b -sheet / %: 21.97%

## HIHIQIC
[1]; [3]
  Log10 Count Rate: 2.416
[1]
  Count Rate / kcps: 261 kcps
[1]; [7]
  Log10 Count Rate: 2.416
[1]; [4]
  Log10 Count Rate: 2.416
[1]; [5]
  Log10 Count Rate: 2.416
[2]
  b -sheet / %: 48.25%

## NMWQKVGTPL
[1]; [3]
  Log10 Count Rate: 1.431
[1]
  Count Rate / kcps: 27 kcps
[1]; [4]
  Log10 Count Rate: 1.431
[1]; [5]
  Log10 Count Rate: 1.431
[2]
  b -sheet / %: 32.26%

## QCKIKQIINMWQ [reference compound]
[1]; Fig S8 panels A, C, asymmetric log errors
  Log Count Rate: 3.415
[1]; Fig S8 panels B, D
  Log Count Rate: 3.415
[1]; Fig S8 panels B, D, turbidity, derived count rate of scattered light
  Count Rate: 2602.27
[1]; [3]
  Log10 Count Rate: 3.415
[1]; category 1 / 0, no key given
  Zeta Count Rate Category: 1
[1]; category 1 or 0 from count rate, key not given
  Zeta Count Rate Category: 1
[1]; derived count rate of scattered light
  Zeta Count Rate / kcps: 2602 kcps
[1]
  Count Rate / kcps: 2606 kcps
[1]; derived count rate of scattered light, mean, std deviation in next column
  Zeta Count Rate / kcps: 2602 kcps
[1]; derived count rate of scattered light, mean, std deviation in separate column
  Zeta Count Rate / kcps: 2602 kcps
[1]; [7]
  Log10 Count Rate: 3.415
[1]; [4]
  Log10 Count Rate: 3.415
[1]; [5]
  Log10 Count Rate: 3.415
[2]
  FTIR ß-sheet content/ %: 39.05%
  b -sheet / %: 51.73%
[2]; ATR-FT-IR, listed as EF-C
  FTIR ß-sheet content/ %: 39% and 39.05%

## QCKAKAQA
[1]; [3]
  Log10 Count Rate: 3.12
[1]
  Count Rate / kcps: 1319 kcps
[1]; [4]
  Log10 Count Rate: 3.12
[1]; [5]
  Log10 Count Rate: 3.12
[2]
  b -sheet / %: 34.06%

## MDQMDQMDQMDQMDQ
[1]; [3]
  Log10 Count Rate: 0.9823
[1]
  Count Rate / kcps: 10 kcps
[1]; [4]
  Log10 Count Rate: 0.9823
[1]; [5]
  Log10 Count Rate: 0.9823
[2]
  b -sheet / %: 46.09%

## EFEFQF
[1]; [3]
  Log10 Count Rate: 2.608
[1]
  Count Rate / kcps: 405 kcps
[1]; [6]
  Log10 Count Rate: 2.608
[1]; [4]
  Log10 Count Rate: 2.608
[2]
  b -sheet / %: 44.93%

## CKWKWQW
[1]; [3]
  Log10 Count Rate: 3.876
[1]
  Count Rate / kcps: 7511 kcps
[1]; [6]
  Log10 Count Rate: 3.876
[1]; [7]
  Log10 Count Rate: 3.876
[1]; [4]
  Log10 Count Rate: 3.876
[2]
  b -sheet / %: 34.2%

## HLHLPLL
[1]; [3]
  Log10 Count Rate: 2.301
[1]
  Count Rate / kcps: 200 kcps
[1]; [4]
  Log10 Count Rate: 2.301
[1]; [5]
  Log10 Count Rate: 2.301
[2]
  b -sheet / %: 49.19%

## MKFM
[1]; [3]
  Log10 Count Rate: 2.1165
[1]
  Count Rate / kcps: 131 kcps
[1]; [4]
  Log10 Count Rate: 2.1165
[1]; [5]
  Log10 Count Rate: 2.1165
[2]
  b -sheet / %: 34.63%

## KIKIQIN
[1]; [3]
  Log10 Count Rate: 1.638
[1]
  Count Rate / kcps: 43 kcps
[1]; [7]
  Log10 Count Rate: 1.638
[1]; [4]
  Log10 Count Rate: 1.638
[1]; [5]
  Log10 Count Rate: 1.638
[2]
  b -sheet / %: 41.82%

## CKFQC
[1]; [3]
  Log10 Count Rate: 2.115
[1]
  Count Rate / kcps: 130 kcps
[1]; [4]
  Log10 Count Rate: 2.115
[1]; [5]
  Log10 Count Rate: 2.115
[2]
  b -sheet / %: 43.86%

## QCKIKQII
[1]; [3]
  Log10 Count Rate: 2.479
[1]
  Count Rate / kcps: 301 kcps
[1]; [4]
  Log10 Count Rate: 2.479
[1]; [5]
  Log10 Count Rate: 2.479
[2]
  b -sheet / %: 40.51%
